From ChEMBL document CHEMBL4330176, “Imidazoquinolines as Novel Inhibitors of LRRK2 Kinase Activity” (ACS Med Chem Lett, 2019)

How the values were obtained:
[1] = molecular target: Leucine-rich repeat serine/threonine-protein kinase 2 (Homo sapiens, UniProt Q5S007); assay: Inhibition of recombinant wild-type GST-tagged LRRK2 (unknown origin) expressed in baculovirus expression system using fluorescein-labeled LRRKtide as substrate after 30 mins by Lanthascreen assay
[2] = molecular target: Leucine-rich repeat serine/threonine-protein kinase 2 (Homo sapiens, UniProt Q5S007, G2019S); assay: Inhibition of GST-tagged LRRK2 G2019S mutant (unknown origin) expressed in baculovirus expression system using fluorescein-labeled LRRKtide as substrate after 30 mins by Lanthascreen assay
Leucine-rich repeat serine/threonine-protein kinase 2 (Homo sapiens, UniProt Q5S007, G2019S), sequence (Q5S007 whole entry G2019S): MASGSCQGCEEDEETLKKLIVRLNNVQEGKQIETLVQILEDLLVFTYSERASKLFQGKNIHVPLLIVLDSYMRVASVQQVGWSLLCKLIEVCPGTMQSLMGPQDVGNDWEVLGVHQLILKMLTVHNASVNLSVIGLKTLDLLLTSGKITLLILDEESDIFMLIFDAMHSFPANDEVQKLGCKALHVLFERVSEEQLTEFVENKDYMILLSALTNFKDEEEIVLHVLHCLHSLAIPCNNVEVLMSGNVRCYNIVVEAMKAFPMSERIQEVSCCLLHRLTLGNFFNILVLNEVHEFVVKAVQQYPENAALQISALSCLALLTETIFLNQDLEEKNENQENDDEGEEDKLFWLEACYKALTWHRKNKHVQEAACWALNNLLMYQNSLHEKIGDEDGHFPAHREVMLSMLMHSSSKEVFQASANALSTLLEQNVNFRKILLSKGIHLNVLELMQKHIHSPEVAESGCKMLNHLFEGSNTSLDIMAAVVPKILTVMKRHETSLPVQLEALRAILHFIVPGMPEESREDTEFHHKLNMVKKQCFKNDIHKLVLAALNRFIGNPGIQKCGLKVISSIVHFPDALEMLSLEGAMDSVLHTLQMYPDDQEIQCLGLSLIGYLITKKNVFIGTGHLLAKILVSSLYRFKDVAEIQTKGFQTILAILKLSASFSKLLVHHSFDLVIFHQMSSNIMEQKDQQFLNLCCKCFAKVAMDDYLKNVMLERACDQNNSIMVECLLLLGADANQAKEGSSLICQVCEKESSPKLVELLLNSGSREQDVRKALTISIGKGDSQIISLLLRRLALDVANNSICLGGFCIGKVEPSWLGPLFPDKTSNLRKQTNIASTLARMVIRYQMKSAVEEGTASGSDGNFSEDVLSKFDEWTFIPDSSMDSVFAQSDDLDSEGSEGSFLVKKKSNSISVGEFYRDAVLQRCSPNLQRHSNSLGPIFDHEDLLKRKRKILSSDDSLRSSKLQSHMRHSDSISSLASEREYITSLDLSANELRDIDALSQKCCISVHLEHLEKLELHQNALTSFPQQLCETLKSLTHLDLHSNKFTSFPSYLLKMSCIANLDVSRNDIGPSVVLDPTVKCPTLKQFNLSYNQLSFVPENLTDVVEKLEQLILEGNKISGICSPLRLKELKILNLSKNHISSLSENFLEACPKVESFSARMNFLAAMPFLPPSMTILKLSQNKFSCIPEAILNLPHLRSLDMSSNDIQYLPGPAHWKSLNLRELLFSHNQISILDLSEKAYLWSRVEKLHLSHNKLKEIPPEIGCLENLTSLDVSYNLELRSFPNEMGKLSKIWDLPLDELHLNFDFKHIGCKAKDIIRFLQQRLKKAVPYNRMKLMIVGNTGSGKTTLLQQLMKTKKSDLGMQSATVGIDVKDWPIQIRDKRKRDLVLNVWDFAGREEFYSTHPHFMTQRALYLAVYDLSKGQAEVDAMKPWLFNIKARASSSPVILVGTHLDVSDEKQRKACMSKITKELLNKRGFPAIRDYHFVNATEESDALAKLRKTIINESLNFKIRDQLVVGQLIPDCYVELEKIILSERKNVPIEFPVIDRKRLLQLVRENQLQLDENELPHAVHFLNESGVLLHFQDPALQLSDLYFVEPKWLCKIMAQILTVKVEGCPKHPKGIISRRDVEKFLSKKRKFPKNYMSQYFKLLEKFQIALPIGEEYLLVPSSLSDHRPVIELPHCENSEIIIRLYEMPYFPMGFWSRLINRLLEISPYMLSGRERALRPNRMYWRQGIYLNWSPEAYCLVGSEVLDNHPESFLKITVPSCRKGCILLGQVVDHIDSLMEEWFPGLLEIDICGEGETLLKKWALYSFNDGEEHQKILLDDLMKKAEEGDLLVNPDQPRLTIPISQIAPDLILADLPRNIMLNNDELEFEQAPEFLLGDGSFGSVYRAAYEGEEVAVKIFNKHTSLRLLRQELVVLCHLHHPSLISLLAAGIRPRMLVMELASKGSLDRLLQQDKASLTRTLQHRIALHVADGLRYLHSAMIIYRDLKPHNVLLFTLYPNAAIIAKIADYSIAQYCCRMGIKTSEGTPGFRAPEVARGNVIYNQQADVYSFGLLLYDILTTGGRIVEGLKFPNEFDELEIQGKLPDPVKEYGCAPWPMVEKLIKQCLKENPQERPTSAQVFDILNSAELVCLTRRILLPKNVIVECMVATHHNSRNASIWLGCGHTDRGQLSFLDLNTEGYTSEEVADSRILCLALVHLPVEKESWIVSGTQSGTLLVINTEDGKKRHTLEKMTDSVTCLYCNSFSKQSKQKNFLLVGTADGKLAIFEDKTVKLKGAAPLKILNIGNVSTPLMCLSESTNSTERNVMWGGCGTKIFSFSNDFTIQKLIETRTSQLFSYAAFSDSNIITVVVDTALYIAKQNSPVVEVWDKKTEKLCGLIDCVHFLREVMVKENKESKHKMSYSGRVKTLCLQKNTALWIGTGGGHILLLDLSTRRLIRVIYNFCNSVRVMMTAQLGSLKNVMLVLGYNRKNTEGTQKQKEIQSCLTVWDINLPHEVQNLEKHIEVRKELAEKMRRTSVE

Leucine-rich repeat serine/threonine-protein kinase 2 (Homo sapiens, UniProt Q5S007), sequence (Q5S007 whole entry): as the sequence (Q5S007 whole entry G2019S) above, with S2019G counted along it

Compound | IC50 [1] | IC50 [2]
N#Cc1ccc2ncc3nc(Cc4csnn4)n([C@@H]4CC[C@H](F)C4)c3c2c1 (relative stereo) | 9.73 nM | 9.75 nM
[2H]C([2H])([2H])c1cnc(Cc2nc3cnc4ccc(Cl)cc4c3n2[C@@H]2CCO[C@H](C)C2)cn1 |  | 2.16 nM
Cc1nc(Cc2nc3cnc4ccc(C(F)(F)F)cc4c3n2[C@@H]2CCOCC2(F)F)no1 | 25.7 nM | 26.5 nM
CCc1nc2cnc3ccc(Cl)cc3c2n1[C@@H]1CCO[C@H](CC#N)C1 |  | 8.7 nM
